Experimental data as given in patent US7576099B2, “Amide derivatives as ion-channel ligands and pharmaceutical compositions and methods of using the same” (Renovis, Inc., priority 2005, dated 2009).

How the values were obtained:
[1] = target: T1, VR1 (Homo sapiens, UniProt Q8NER1); experiment: Acid stimulation assay (FDSS 6000, intracellular calcium); format: cell-based; parameters: host or cells: only 'the cell suspension' is mentioned; conditions: final assay buffer pH5.8, 15 minutes pre-incubation
Method: The Acid-induced changes in the intracellular calcium concentration were monitored using FDSS 6000 (Hamamatsu Photonics, Japan), a fluorometric imaging system. The cell suspension in resting buffer (HBSS supplemented with 10 mM HEPES, pH 7.4) was pre-incubated with varying concentrations of the test compounds or resting buffer (buffer control) for 15 minutes at room temperature under dark conditions. The cells were automatically added the stimulating solution (HBSS supplemented with MES, final assay buffer pH5.8) by the FDSS 6000.
Target sequence in this assay (Q8NER1 whole entry, species assumed): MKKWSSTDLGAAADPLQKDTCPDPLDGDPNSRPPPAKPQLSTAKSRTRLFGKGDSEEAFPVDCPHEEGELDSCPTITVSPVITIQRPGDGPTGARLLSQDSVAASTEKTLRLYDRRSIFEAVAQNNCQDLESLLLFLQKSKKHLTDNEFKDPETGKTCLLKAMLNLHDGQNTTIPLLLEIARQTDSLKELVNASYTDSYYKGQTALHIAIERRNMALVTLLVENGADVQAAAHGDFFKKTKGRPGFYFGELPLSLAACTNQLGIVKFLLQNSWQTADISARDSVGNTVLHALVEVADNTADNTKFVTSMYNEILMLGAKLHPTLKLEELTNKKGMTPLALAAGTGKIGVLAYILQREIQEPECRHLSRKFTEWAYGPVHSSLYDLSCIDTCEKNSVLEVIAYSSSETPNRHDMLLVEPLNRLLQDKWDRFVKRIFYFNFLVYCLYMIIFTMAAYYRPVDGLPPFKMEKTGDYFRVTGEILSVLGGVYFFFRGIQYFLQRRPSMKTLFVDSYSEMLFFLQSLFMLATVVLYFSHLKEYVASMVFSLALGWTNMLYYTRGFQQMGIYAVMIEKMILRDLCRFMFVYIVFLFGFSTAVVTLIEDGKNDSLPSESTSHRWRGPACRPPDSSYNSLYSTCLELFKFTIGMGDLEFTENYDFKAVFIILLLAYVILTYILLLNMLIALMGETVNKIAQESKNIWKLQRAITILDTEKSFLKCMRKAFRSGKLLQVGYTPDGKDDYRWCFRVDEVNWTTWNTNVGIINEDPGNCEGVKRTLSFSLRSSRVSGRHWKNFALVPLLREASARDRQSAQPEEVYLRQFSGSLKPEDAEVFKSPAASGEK

[2] = target: T1, VR1; experiment: Calcium uptake assay (Fura2, Flex Station) in HEK 293 cells expressing hVR1; format: cell-based; parameters: expressed in transfected cells; host or cells: T-REx HEK 293 (Invitrogen), pcDNA5/TO vector, doxycycline induced; conditions: for inhibition at 0.3 µM: HEK293, read-out: Low pH % Inhib. @ 0.3 μM; for inhibition of the Capsaicin induced intracellular calcium response (FIGS. 2-6): 3 nM compound, capsaicin as agonist, calcium uptake assay method
Target sequence in this assay (Q8NER1 whole entry): as the sequence (Q8NER1 whole entry, species assumed) above

[3] = Half-life in human liver microsomes (HLM); format: in vitro ADME; conditions: human liver microsomes (HLM, HL101), pH 7.4, 1 μM compound, 0.78 mg/mL HLM, NADPH, 37° C.
Method: Test compounds (1 μM) were incubated with 3.3 mM MgCl2 and 0.78 mg/mL HLM (HL101) in 100 mM potassium phosphate buffer (pH 7.4) at 37° C. on the 96-deep well plate. The reaction mixture was split into two groups, a non-P450 and a P450 group. NADPH was only added to the reaction mixture of the P450 group. An aliquot of samples of P450 group was collected at 0, 10, 30, and 60 min time point, where 0 min time point indicated the time when NADPH was added into the reaction mixture of P450 group. An aliquot of samples of non-P450 group was collected at −10 and 65 min time point. Collected aliquots were extracted with acetonitrile solution containing an internal standard. The precipitated protein was spun down in centrifuge (2000 rpm, 15 min). The compound concentration in supernatant was measured by LC/MS/MS system.
The half-life value was obtained by plotting the natural logarithm of the peak area ratio of compounds/internal standard versus time. The slope of the line of best fit through the points yields the rate of metabolism (k). […]
Exemplary compounds of the invention were tested (1 μM), and were incubated with 3.3 mM MgCl2 and 0.78 mg/mL HLM (HL101) in 100 mM potassium phosphate buffer (pH 7.4) at 37° C. on the 96-deep well plate. […] The compound concentration in supernatant was measured by LC/MS/MS system. […]

[4] = tested on: VR1 receptor; experiment: Calcium imaging assay in DRG neurons (Example 1); format: cell-based; conditions: 3 nM compound
Method: Therefore the functional activity of compounds at the VR1 receptor may be determined by measuring changes in intracellular calcium levels in neurons such as the dorsal root ganglion. […] Prior to assay, cells were loaded with 5 μg/ml Fura2 in normal saline solution at 37° C. for 40 minutes. Cells were then washed with normal saline to remove dye before commencement of the experiment. The plated neurons were transferred into a chamber on the stage of a Nikon eclipse TE300 microscope after which neurons were allowed to attain a stable fluorescence for about 10 minutes before beginning the experiment. The assay consists of two stages, a pretreatment phase followed by a treatment phase. First, a solution of the test compound was added from a multivalve perfusion system to the cells for 1 minute (pretreatment). […] Fura2 was excited at 340 and 380 nm to indicate relative calcium ion concentration. Changes in wavelength measurements were made throughout the course of the experiment. The fluorescence ratio was calculated by dividing fluorescence measured at 340 nm by that at 380 nm. Data were collected using Intelligent Imaging's Slidebook software.

[5] = 0.3 μM compound, low pH (protons) as agonist, HEK 293 cells expressing hVR1

| inhibition at 0.3 µM [2, 5] [%] | Structure (SMILES) | other results |
| --- | --- | --- |
| 14 | O=C(Nc1ccc2c(c1)NCCO2)c1ccc(/C=C/C(F)(F)F)cc1 [Compound 62] |  |
| 19 | CC1(C)Oc2ccc(NC(=O)c3ccc(/C=C/C(F)(F)F)cc3)cc2NC1=O [Compound 58] |  |
| 58 | O=C1COc2ccc(NC(=O)c3ccc(/C=C/C(F)(F)F)cc3)cc2N1 [Compound 57] |  |
| 54 | Cc1cc(/C=C/C(F)(F)F)ccc1C(=O)NC1=CC2CNCCC2N=C1 (stereo not drawn) [Compound 229] |  |

Second part, the molecule before the results:

| Structure (SMILES) | inhibition at 0.3 µM [2, 5] [%] | other results |
| --- | --- | --- |
| O=C(Nc1ccc2c(c1)OCCN2)c1ccc(C#CC(F)(F)F)cc1 [Compound 70] |  | IC50 [1]: 5 nM; Low pH % Inhib. @ 0.3 μM [2, 5]: 185% |
| O=C(Oc1ccc2c(c1)OC(CO)CO2)c1ccc(C#CC2CC2)cc1 (stereo not drawn) [Compound 86] | 83 |  |
| O=C(Nc1cccc2cnccc12)c1ccc(C#CC(F)(F)F)cc1 [Compound 45] |  | inhibition of the Capsaicin induced intracellular calcium response (FIGS. 2-6) [2]: significant inhibition |
| Cc1cc2c(NC(=O)c3ccc(/C=C/C(F)(F)F)cc3)cccc2nn1 [Compound 113] | 9 |  |
| O=C(Nc1ccc2c(c1)OCC(CO)O2)c1ccc(/C=C/C(F)(F)F)cc1 (single isomer, unassigned) [Compound 108] |  | IC50 [1]: 5 nM |
| CC(C)(C)C#Cc1ccc(C(=O)Nc2cccc3cnccc23)cc1OCCN1CCOCC1 [Compound 60] | 69 | half-life at 1 μM [3]: 21 min |
| Cc1cc(C#CC(C)(C)C)ccc1C(=O)Nc1ccc2c(c1)OCC(CO)N2 (stereo not drawn) [Compound 167] |  | inhibition of the Capsaicin induced intracellular calcium response (FIGS. 2-6) [2]: significant inhibition |
| C/C(=C\C(F)(F)F)c1ccc(C(=O)Nc2ccc3c(c2)OCCN3)cc1 [Compound 96] |  | inhibition of the Capsaicin induced intracellular calcium response (FIGS. 2-6) [2]: significant inhibition |
| O=C(Oc1ccc2c(c1)OCC(CO)O2)c1ccc(C#CC2CC2)cc1 (stereo not drawn) [Compound 87] | 98 |  |
| CN1CCC(C)(C)c2ccc(NC(=O)c3ccc(C#CC(C)(C)C)cc3)cc21 [Compound 59] | 83 |  |
| CC1(C)CNc2cc(NC(=O)c3ccc(/C=C/C(F)(F)F)cc3)ccc2O1 [Compound 64] | 10 |  |
| Cc1cc(/C=C/C(F)(F)F)ccc1C(=O)Nc1ccc2sc(CO)nc2c1 [Compound 225] |  | inhibition of the Capsaicin induced intracellular calcium response (FIG. 1) [4]: significant inhibition; inhibition of the Capsaicin induced intracellular calcium response (FIG. 1) ([4]; listed as compound 225): reduced; % inhibition of capsaicin induced calcium influx ([4]; treatment time 20 sec, capsaicin 250 nM): >75% |
| Cc1cc(/C=C/C(F)(F)F)ccc1C(=O)Nc1cnc2c(c1)OCC(O)CN2 (stereo not drawn) [Compound 189] | 87 |  |
| O=C(Nc1ccc2c(c1)OCCN2)c1ccc(/C=C/C(F)(F)F)cc1 [Compound 63] | 123 | half-life at 1 μM [3]: 24 min |
| Cc1cc(/C=C/C(F)(F)F)ccc1C(=O)Nc1cnc2ccccc2c1 [Compound 187] |  | inhibition of the Capsaicin induced intracellular calcium response (FIGS. 2-6) [2]: significant inhibition |
| CC(C)(C)C#Cc1ccc(C(=O)Nc2cnc3ccccc3c2)cn1 [Compound 24] | 101 |  |
| Cc1cc(/C=C/C(F)(F)F)ccc1C(=O)Nc1cnc2c(c1)OCC(CO)N2 (stereo not drawn) [Compound 233] |  | inhibition of the Capsaicin induced intracellular calcium response (FIGS. 2-6) [2]: significant inhibition |
| O=C1COc2cc(NC(=O)c3ccc(/C=C/C(F)(F)F)cc3)ccc2N1 [Compound 61] | 10 |  |
